This note sets out measurements from US7452965B2, “Colon tumor specific binding peptides” (University of Utah Research Foundation, priority 2002, dated 2008).

Like-named read-outs stand apart in the source and are kept apart here. Bridge positions count the residues as written; N and C are the ends. Square brackets hold non-standard residues; d marks the D form. Ends that are not written are not given here. Peptide text beside a SMILES is read from it.

As usually defined, the EC50 is the concentration needed to bring the measured effect to its halfway point.

The subject of data set [1] is HT29 cells. The settings on record: for shift of EC50 of competition relative to RPM peptide: alanine mutants vs RPM peptide; for ability of peptide to compete RPM (CPIEDRPMC) phage binding to HT29 cells: peptide 0-1000 μM; for ability of peptide to compete RPM (CPIEDRPMC) phage binding to HT29 cells / level of RPM associated phage binding to HT29 cells in presence of competitor: 4° C.; for level of RPM associated phage binding to HT29 cells in presence of competitor: percentage of phage bound in absence of competitor. The protocol:
Phage binding assay. HT29 cells were incubated with peptide in binding buffer at concentrations of 0, 0.1, 1, 10, 100, or 1000 μM for 30 minutes at 4° C. After 30 minutes of incubation, 10^10 pfu of phage were added to the cells and incubated at 4° C. for an additional 45 minutes. Following incubation, cells were washed 6× with wash buffer and the phage remaining bound were eluted with glycine. The number of phage bound to the cells was quantified with real time PCR.
To determine whether […] (SEQ ID NO: 134) displaying phage bind to HT29 cells specifically, a competition assay was performed using phage and synthetic peptides, peptides corresponding to the specific sequence, […] (SEQ ID NO: 134), and the non-specific sequence, […] (SEQ ID NO: 135), were synthesized by standard methods and oxidized to form a disulfide bond. Reaction of the peptides before and after oxidation with ElIman's reagent was performed to verify presence of the disulfide bond. […] In FIG. 2A, HT29 cells were incubated with increasing log concentrations of […] (SEQ ID NO: 134) peptide and with a constant number of either specific or non-specific phage. The number of phage binding to the HT29 cells was quantified and the percentage binding calculated based on the number of phage that bind in the absence of competitor. The sequence […] The reciprocal experiment was also done with HT29 cells incubated with increasing log concentrations of specific or non-specific peptide and a constant concentration of phage displaying the peptide […] (SEQ ID NO: 134).
The phage selection procedure produced naturally occurring substitution mutants so the phage and the peptide could be used to determine a functional consensus sequence for the family. HT29 cells were incubated with increasing log concentrations of […] (SEQ ID NO: 134) peptide and a constant number of phage displaying one of the sequences were selected.
To examine the importance of each residue within the RPM sequence for binding to HT29 cells, peptides were synthesized having alanine mutations in either the arginine, proline, or methionine residue and used in phage competition assay as described above.

In data set [2] the test system is HT29 cells. The data set is described as follows: RPM-FITC immunofluorescence staining of cultured cells (confocal microscopy). It counts as cell-based. The protocol: Cell Culture: HT29, HCT116, or a 50% mixture of HT29 and HCT116 cells were plated on glass slides (Nalge). Wells were incubated with 10 μM of RPM-FITC peptide for 45 minutes at 4° C. or 37° C. After washing with wash buffer, cells were blocked with 1% NGS, 0.1% BSA, 0.1% Triton-X100 in PBS. Following the blocking step, wells were incubated with the polyclonal p53 antibody, D10, (Santa Cruz) for 1 hour at room temperature. The wells were washed and incubated with the secondary antibodies GαFITC Alexa 488 (Molecular Probes) and GαMouse Alexa 647 (Molecular Probes) and the nuclear stain Topro-3 (Molecular Probes). Wells were washed and mounted using Pro-Long Anti-fade (Molecular Probes). Slides were analyzed by confocal microscopy.
The peptide then was tested to determine whether it was able to differentiate HT29 from HCT116 cells. In order to distinguish HT29 from HCT116 cells in our immunohistochemical assays, staining was carried out in the presence of the transcription factor, p53. Staining for the protein p53 is a way to visually discriminate HT29 from HCT116 cells, since p53 is mutated and accumulates in HT29 cells but is wild type in HCT116 cells and thus, is rapidly degraded. […] To test the ability of the fluorescein conjugated peptide (RPM-FITC) to preferentially bind HT29 cells, HT29 and HCT116 cells were stained with RPM-FITC. […] When a mixture of HT29 and HCT116 cells was incubated with RPM-FITC and concurrently analyzed for the presence of p53, cells with the highest level of p53 protein also bound RPM-FITC (FIG. 5A).
The ability of a molecule to translocate across the cell membrane is important for drug delivery. HT29 cells were incubated for 1 hour at either 4° C. or 37° C. in the presence of 100 uM RPM-FITC. After incubation, cells were washed, fixed with 2% paraformaldehyde, then incubated with an anti-FITC secondary antibody to amplify the fluorescence signal.

In a further data set the test system is human colon tumor. The data set can be described thus: Peptide-binding assay on frozen tissue sections. On the procedure: (§1) A biopsy of sporadic colon adenocarcinoma, liver and lung sarcoma, and grossly uninvolved colon, liver, lung, and stomach were frozen in optimum cutting temperature (OCT) and […] cryostat sections placed on glass slides. Sections were stained with H&E and untreated adjacent sections were incubated with RPM-FITC. After incubating with RPM-FITC in binding buffer for 45 minutes at 4° C., slides were washed and mounted using Pro-Long Anti-Fade (Molecular Probes). Nuclei were visualized by a quick incubation with Topro-3 (Molecular Probes) present in the last wash. Samples were analyzed by confocal microscopy.

For data set [3], the system named is lung and liver cancer, grossly uninvolved lung, liver, and stomach. The data set is described as follows: Peptide-binding assay on frozen tissue sections. More on the design: species or system human. The settings on record: cryostat sections. On the procedure: as §1
To determine whether RPM-FITC was able to bind cancers originated from tissues other than colon or to other normal tissues, a peptide-binding assay was performed on cryostat sections of lung and liver cancer, and grossly uninvolved lung, liver, and stomach. As a positive control, a section of colon tumor was stained in parallel with the other sections. […] Binding to HT29 Cells is Dependent on the Amino Acids, RPMC-C (SEQ ID NO: 136).

For data set [4], the system named is HT29 cells. The data set can be described thus: MTT cell viability after RPM-KLAK or KLAK. It counts as cell-based. As to conditions: 72 hours at 37° C. On the procedure: (§2) RPM-KLAK (SEQ ID NO: 132) and KLAK (SEQ ID NO: 133) on HT29 and HCT116 cells. HT29 and HCT116 cells were incubated with increasing log concentrations of RPM-KLAK (SEQ ID NO: 132) or KLAK (SEQ ID NO: 133) for 72 hours at 37° C. After incubation, MTT was added to a final concentration of […] and incubated at 37° C. for 1 hour. The media/MTT was removed carefully and the cells dissolved with 0.1N HCl in isopropanol. Absorbance was read on a plate reader (Cytofluor II, Perceptive Biosystems) at 570 nm.
(§3) Since RPM-FITC is internalized at 37° C., RPM may be used to deliver a toxin to HT29 cells. […] Cells that were incubated with (KLAK)2 (SEQ ID NO: 138) alone or with free peptide were refractory to death induced by the toxin. However, when a peptide that was specific and also internalized by cells was conjugated to (KLAK)2 (SEQ ID NO: 138), the cells were killed. RPM was coupled to (KLAK)2 (SEQ ID NO: 138) and incubated with HT29 and HCT116 cells with either (KLAK)2 (SEQ ID NO: 138) alone as a negative control or RPM-(KLAK)2 (SEQ ID NO: 5). Cells were treated for 72 hours at 37° C. At the end of the incubation, cell viability was measured by MTT assay. […] This was indeed observed for HCT116 incubation with RPM (KLALK)2 (SEQ ID NO: 5) (FIG. 6B).

For another data set, the system named is HCT116 cells. The data set is described as follows: MTT cell viability after RPM-KLAK or KLAK. It counts as cell-based. The settings on record: 72 hours at 37° C. On the procedure: as §2, §3
Data set [5] relates to HT29 cells. The data set is described as follows: MTT viability of protease-treated cells. The class given is cell-based. As to conditions: MTT 45 minutes at 37° C. after protease treatment. The protocol: (§4) In order to further this observation, HT29 cells were treated with active or boiled proteases to determine the effect of treatment on the ability of an RPM displaying phage to bind. HT29 cells were treated with active or boiled collagenase for 15 minutes, trypsin for 5 minutes, or proteinase K for 0.5 minutes at 37° C. After protease treatment, cells were washed, then an equal number of phage were added and allowed to bind. […] The decrease in phage binding to the HT29 cells was due to the protease activity since boiling the proteases abolished the effect with phage binding returning to levels of that observed for PBS treated cells (FIG. 6B). […] After treating HT29 cells with proteases as described above, MTT was added to the cells and incubated for 45 minutes at 37° C. After incubation, the cells were solubilized with 0.1N HCl in isopropanol and the absorbance due to MTT incorporation was determined.

In data set [6] the test system is HT29 cells. The data set is described as follows: Protease assay: RPM phage binding to protease-treated cells. The settings on record: 37° C. The protocol:
HT29 cells were incubated at 37° C. with either active or boiled Collagenase diluted 1:20 for 10 minutes, Trypsin-EDTA 0.25% (Gibco) for 5 minutes or Proteinase K (Gibco) diluted 1:600 for 1 minute. After incubation, cells were then incubated with RPM bearing phage as described above. The number of phage remaining bound was quantified by real time PCR.
as §4

Take `CC[C@H](C)[C@@H]1NC(=O)[C@@H]2CCCN2C(=O)[C@@H](N)CSSC[C@@H](C(=O)O)NC(=O)[C@H](CCSC)NC(=O)[C@@H]2CCCN2C(=O)[C@H](C)NC(=O)[C@H](CC(=O)O)NC(=O)[C@H](CCC(=O)O)NC1=O` [APM] (H-CPIEDAPMC-OH; disulfide 1-9 (inferred); N-terminus and C-terminus assumed): in the data set with HT29 cells [1], the EC50 stood at 690 µM and the “shift of EC50 of competition relative to RPM peptide” value is given as approximately 100 fold.

For the compound `CC[C@H](C)[C@@H]1NC(=O)[C@@H]2CCCN2C(=O)[C@@H](N)CSSC[C@@H](C(=O)O)NC(=O)[C@H](CCSC)NC(=O)[C@@H]2CCCN2C(=O)[C@H](CCCNC(=N)N)NC(=O)[C@H](CC(=O)O)NC(=O)[C@H](CCC(=O)O)NC1=O` [CPIEDRPMC, cys-pro-ile-glu-asp-arg-pro-met-cys] (H-CPIEDRPMC-OH; disulfide 1-9), in the data set on HT29 cells [2], the “effect of unlabeled competitor on RPM-FITC staining of HT29 cells” value was “able to abolish”. For the same compound, the “effect of unlabeled competitor on RPM-FITC binding to colon tumor” value in the data set on human colon tumor was “abrogate binding”. Moreover, the “labeling of lung and liver cancer and uninvolved lung, liver, stomach” value in data set [3] is “failed to stain”. In the data set on HT29 cells [1], the “ability of peptide to compete RPM (CPIEDRPMC) phage binding to HT29 cells” value (“ability of peptide to compete RPM” below) was “able to compete” and the “level of RPM associated phage binding to HT29 cells in presence of competitor” value is recorded as “less than 4%”. Moreover, the “ability of peptide to compete RPM” value in the data set on HT29 cells [1] (listed as RPM peptide) was “successfully abolished binding”. In the data set on HT29 cells [1] (read-out: EC50 of competition, competition of RPM displaying phage on HT29 cells), the EC50 worked out at 5 µM.

As to `CC[C@H](C)[C@@H]1NC(=O)[C@@H]2CCCN2C(=O)[C@@H](N)CSSC[C@@H](C(=O)O)NC(=O)[C@H](C)NC(=O)[C@@H]2CCCN2C(=O)[C@H](CCCNC(=N)N)NC(=O)[C@H](CC(=O)O)NC(=O)[C@H](CCC(=O)O)NC1=O` [RPA] (H-CPIEDRPAC-OH; disulfide 1-9 (inferred); N-terminus and C-terminus assumed), in the data set with HT29 cells [1], the concentration for a half-maximal effect (EC50) turned out to be 545 µM and the “shift of EC50 of competition relative to RPM peptide” value is approximately 100 fold.

As for “(KLAK)2: antimicrobial toxin that selectively disrupts the mitochondrial membrane of eukaryotic cells, SEQ ID NO: 138 / 133 (KLAKKLAK) [reference compound]”, the “effect on HT29 cell viability” value in the data set on HT29 cells [4] was “did not effect the viability”. Besides, the “effect on HCT116 cell viability” value in the data set on HCT116 cells is given as “did not effect the viability”.

“A11 D RPM: RPM peptide consisting of all D amino acids ([dC][dP][dI][dE][dD][dR][dP][dM][dC]; cysteine pairing not given here)”: the “ability of peptide to compete RPM” value in the data set with HT29 cells [1] was “not able to compete”; in the data set with HT29 cells [1] (listed as peptide synthesized with all D amino acids), “failed to compete”.

As to “CKHLGPQLC (disulfide 1-9 (inferred)) [reference compound]”, in the data set with HT29 cells [2], the “effect of unlabeled competitor on RPM-FITC staining of HT29 cells” value was “unaffected”. For the same compound, the “ability of peptide to compete RPM” value is on record as “not able to compete” with HT29 cells [1] and “failed to block” with HT29 cells [1] (listed as unrelated peptide). For the same compound, the “level of RPM associated phage binding to HT29 cells in presence of competitor” value in the data set on HT29 cells [1] was determined as 100%.

For the compound “RPM middle: peptide bearing the RPM motif in the middle of the peptide, CPIRPMEDC (SEQ ID NO: 137)”, the “fold less potent than RPM in competing with phage for HT29 cell binding” value in the data set on HT29 cells [1] (compared to RPM) is “over 100 fold”. Also, the “ability of peptide to compete RPM” value in the data set with HT29 cells [1] was “failed to compete”.

Turning to collagenase, the “average absorbance (MTT incorporation) of treated cells” value in the data set on HT29 cells [5] was 0.189. The “decrease of RPM phage binding to active protease treated HT29 cells” value in the data set on HT29 cells [6] is listed as 85%.

With trypsin, the “average absorbance (MTT incorporation) of treated cells” value in the data set on HT29 cells [5] stood at 0.175. The “decrease of RPM phage binding to active protease treated HT29 cells” value in the data set with HT29 cells [6] is recorded as 90%.
